Experimental data reported in publication PMC10962703 (bioRxiv, 2024).
“And” between values parts separate entries of the source, which are not always exact repeats. Identical values can stand only once. “Also recorded” adds a separate entry of the source.

Tests used:
human D2R [1] = target: T1, human D2R (Homo sapiens, UniProt P14416); assay: cell-based; format: cell-based; conditions: for Emax: read-out: D2R mitogenesis Emax
Target sequence in this assay (P14416 whole entry): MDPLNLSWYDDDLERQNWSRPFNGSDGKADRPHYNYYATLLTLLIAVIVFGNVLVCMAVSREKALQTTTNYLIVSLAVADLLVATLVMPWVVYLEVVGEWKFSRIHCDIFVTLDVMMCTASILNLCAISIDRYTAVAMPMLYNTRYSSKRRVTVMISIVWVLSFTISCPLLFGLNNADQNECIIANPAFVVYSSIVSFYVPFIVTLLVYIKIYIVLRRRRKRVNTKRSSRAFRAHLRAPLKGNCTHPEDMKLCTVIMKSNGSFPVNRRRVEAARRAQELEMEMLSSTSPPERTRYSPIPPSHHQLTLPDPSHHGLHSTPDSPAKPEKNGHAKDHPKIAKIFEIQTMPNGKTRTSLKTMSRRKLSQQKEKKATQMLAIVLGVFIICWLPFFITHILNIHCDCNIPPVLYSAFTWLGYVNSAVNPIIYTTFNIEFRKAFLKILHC

human D3R [2] = target: T2, human D3R (Homo sapiens, UniProt P35462); assay: D3R-mediated mitogenesis; format: cell-based; conditions: for Emax: read-out: D3R mitogenesis Emax
INS-1E cells = assay: Glucose-stimulated insulin secretion; format: cell-based, rat
Sprague-Dawley rats = assay: Intracerebroventricular L-DOPA infusion, plasma glucose and insulin; format: in vivo; conditions: 10 mM i.c.v. infusion, 5 µL/h, 3.5 h
human D2R [3] = target: T1, human D2R; format: cell-based
Target sequence in this assay (P14416 whole entry): as above
Target sequence in this assay (P63096 2-354 partner limits assumed): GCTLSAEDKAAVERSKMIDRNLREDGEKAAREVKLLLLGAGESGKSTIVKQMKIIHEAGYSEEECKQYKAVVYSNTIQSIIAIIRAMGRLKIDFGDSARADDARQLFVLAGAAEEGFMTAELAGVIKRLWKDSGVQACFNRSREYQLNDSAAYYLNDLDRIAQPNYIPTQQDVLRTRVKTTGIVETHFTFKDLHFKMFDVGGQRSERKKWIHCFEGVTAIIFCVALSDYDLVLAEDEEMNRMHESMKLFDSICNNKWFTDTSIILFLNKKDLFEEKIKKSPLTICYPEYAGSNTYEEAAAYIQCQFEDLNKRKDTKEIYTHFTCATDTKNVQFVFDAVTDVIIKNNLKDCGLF

[4] = Mouse microsomal stability assay; format: in vitro ADME; conditions: mouse liver microsomes + NADPH, 1 µM, 30 min
[5] = test system: Western diet-fed wild-type C57BL/6J mice; assay: Body weight in diet-induced obesity model; format: in vivo; conditions: 10 mg/kg i.p. daily, at 12 weeks
human D2R [6] = target: T1, human D2R; assay: biochemical
Target sequence in this assay (P14416 whole entry): as the sequence (P14416 whole entry) above

[7] = test system: Western diet-fed wild-type C57BL/6J mice; assay: Oral glucose tolerance testing in diet-induced obesity model; format: in vivo; conditions: for fasting blood glucose: 6-h fast
[8] = In vivo pharmacokinetics, plasma and brain levels; set-up: species or system CD1 mice; conditions: for Brain Conc.: mean ± SEM, n=3; for Kp at 0.25 h / Kp at 1 h / concentration at 15 min / concentration at 60 min: male, CD1, mouse, 10 mg/kg; for Kp at 0.25 h / Kp at 1 h: brain, iv; for concentration at 15 min / concentration at 60 min: plasma, intravenous
human D2R [9] = target: T1, human D2R; conditions: [3H]-(R)-(+)-7-OH-DPAT
Target sequence in this assay (P14416 whole entry): as above

[10] = test system: Western diet-fed wild-type C57BL/6J mice; assay: Insulin tolerance testing in diet-induced obesity model; format: in vivo; conditions: 10 mg/kg i.p. daily, 12 weeks
human D3R [11] = target: T2, human D3R; assay: biochemical
human DA D4.4 receptors = target: T3, human DA D4.4 receptors (Homo sapiens, UniProt P21917); format: cell-based; conditions: inhibition of forskolin-stimulated cAMP formation
T3 sequence (P21917 1-419): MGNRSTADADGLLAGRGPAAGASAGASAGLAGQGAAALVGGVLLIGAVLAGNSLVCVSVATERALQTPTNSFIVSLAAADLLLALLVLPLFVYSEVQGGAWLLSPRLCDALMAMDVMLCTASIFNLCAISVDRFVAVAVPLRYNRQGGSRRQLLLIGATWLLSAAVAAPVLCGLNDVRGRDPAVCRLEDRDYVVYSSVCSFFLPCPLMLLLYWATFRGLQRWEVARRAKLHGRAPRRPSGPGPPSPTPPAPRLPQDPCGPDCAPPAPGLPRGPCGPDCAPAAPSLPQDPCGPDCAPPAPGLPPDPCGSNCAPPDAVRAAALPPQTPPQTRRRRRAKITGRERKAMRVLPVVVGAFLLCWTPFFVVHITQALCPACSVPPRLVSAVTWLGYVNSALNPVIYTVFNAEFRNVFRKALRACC

human D4R = assay: Radioligand competition binding, HEK293 membranes, hD4R; conditions: [3H]-(R)-(+)-7-OH-DPAT
human D3R [12] = target: T2, human D3R; assay: Radioligand competition binding, HEK293 membranes, hD3R; conditions: [3H]-(R)-(+)-7-OH-DPAT
[13] = 10 mg/kg i.v., 60 min versus 15 min

T2 sequence (P35462 whole entry): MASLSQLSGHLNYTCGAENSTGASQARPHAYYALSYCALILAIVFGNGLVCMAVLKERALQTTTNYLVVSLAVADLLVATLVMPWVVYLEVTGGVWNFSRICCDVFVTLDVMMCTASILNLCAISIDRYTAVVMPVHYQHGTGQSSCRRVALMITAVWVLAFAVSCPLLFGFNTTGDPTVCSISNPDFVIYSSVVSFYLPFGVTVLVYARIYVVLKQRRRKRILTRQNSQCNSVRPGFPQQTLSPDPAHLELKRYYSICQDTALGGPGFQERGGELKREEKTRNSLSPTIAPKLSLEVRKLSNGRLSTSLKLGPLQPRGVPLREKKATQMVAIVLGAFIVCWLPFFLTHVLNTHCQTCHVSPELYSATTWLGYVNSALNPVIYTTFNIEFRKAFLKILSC

| Structure (SMILES) | Emax (human D2R [1]) [%] | EC50 (human D3R [2]) [nM] | Emax (human D3R [2]) [%] | decrease in GSIS potency versus unmodified parent (INS-1E cells) [fold] | Ki (human D2R [6]) [nM] | Brain Conc. ([8]; 10 mg/kg i.v., 15 min) [pmol/g] | Brain Conc. ([8]; 10 mg/kg i.v., 60 min) [pmol/g] | Kp at 0.25 h [8] | Kp at 1 h [8] | concentration at 15 min [8] [nM] | concentration at 60 min [8] [nM] | D3R/D2R ratio of binding affinity (human D2R [9]) | Ki (human D3R [11]) [nM] | also measured |
| --- | --- | --- | --- | --- | --- | --- | --- | --- | --- | --- | --- | --- | --- | --- |
| CN[C@@H]1Cc2cccc3[nH]c(=O)n(c23)C1 [Sumanirole, sumanirole] | 110 | 224 ± 24 | 180 | – | – | – | – | – | – | – | – | – | – | – |
| CCC[N+]1(C)CCC[C@@H]2Cc3n[nH]cc3C[C@H]21.[I-] (stereo partly drawn) [AB01–59, (4aR,8aR)-5-Methyl-5-propyl-4,4a,5,6,7,8,8a,9-octahydro-2H-pyrazolo[3,4-g]quinolin-5-ium iodide] | – | – | – | 5.9 | – | – | – | – | – | – | – | – | – | reduced efficacy in GSIS versus unmodified parent (decrease) (INS-1E cells): 48.4% |
| N[C@@H](Cc1ccc(O)c(O)c1)C(=O)O [L-DOPA] | – | – | – | – | – | – | – | – | – | – | – | – | – | plasma glucose versus saline vehicle (Sprague-Dawley rats): did not significantly impact; plasma insulin versus saline vehicle (Sprague-Dawley rats): did not significantly impact |
| CC(C)C[C@H]1C(=O)N2CCC[C@H]2[C@]2(O)O[C@](NC(=O)[C@@H]3C=C4c5cccc6[nH]c(Br)c(c56)C[C@H]4N(C)C3)(C(C)C)C(=O)N12 [Bromocriptine, bromocriptine] | 99 | 3.4 ± 1.1 | – | – | 0.59 ± 0.17 | 995.2 ± 188.0 | 71.1 ± 2.3 | 0.74 ± 0.11 | 0.45 ± 0.05 | 1340 ± 52.2 | 159 ± 15 | 3.46 | 2.05 ± 0.56 | less efficacy than DA in Gαi1 recruitment to D2R (human D2R [3]): 47%; % drug remaining [4]: entirely metabolized; % drug remaining ([4]; listed as bromocriptine): complete disappearance; body weight versus vehicle [5]: neither systemic bromocriptine nor BrMeI treatments had significant effects on weight; also recorded: no significant effect; glucose tolerance (OGTT) versus vehicle ([7]; 10 mg/kg i.p. daily, 12 weeks): significant improvements in glucose tolerance; also recorded: improvement in glucose tolerance; fasting blood glucose ([7]; 10 mg/kg i.p. daily, 12 weeks): significantly lower fasting blood glucose; fasting blood glucose ([7]; 10 mg/kg i.p. daily, 12 weeks, listed as bromocriptine): significantly lower fasting glucose; glucose tolerance (OGTT) versus i.c.v. vehicle ([7]; i.c.v. daily, 8 weeks (10 mg/kg)): did not significantly modify glucose tolerance; also recorded: no significant effect on glucose tolerance; glucose tolerance ([7]; systemic administration, 8 weeks, data not shown): sufficient to improve glucose tolerance; decrease in brain level by 60 min post-administration [8, 13]: 92.9%; decrease in plasma level by 60 min post-administration [8, 13]: 88.2%; insulin sensitivity / blood glucose during ITT versus vehicle ([10]; 1.5 U/kg insulin): significant improvements in insulin sensitivity; plasma insulin during ITT ([10]; initial 15 min of ITT): significantly enhanced plasma insulin levels |
| Cc1cccc(NC(=O)C[N+]2(C)CCC(c3ccccc3)CC2)c1.[I-] (stereo not shown) [AB01–102, 1-Methyl-1-(2-oxo-2-(m-tolylamino)ethyl)-4-phenylpiperidin-1-ium iodide] | – | – | – | – | – | – | – | – | – | – | – | – | – | diminished potency in D4R cAMP assay compared to unmodified parent (human DA D4.4 receptors): 731.9 fold; functional behaviour in D4R cAMP assay (human DA D4.4 receptors; relative to (−)-quinpirole): partial agonists; loss of D4R binding affinity compared to unmodified parent (human D4R): 61.7 fold |
| CC(C)C[C@H]1C(=O)N2CCC[C@H]2[C@]2(O)O[C@](NC(=O)[C@@H]3C=C4c5cccc6[nH]c(Br)c(c56)C[C@H]4[N+](C)(C)C3)(C(C)C)C(=O)N12.[I-] [AB01–60, (6aR,9R)-5-Bromo-9-(((2R,5S,10aS,10bS)-10b-hydroxy-5-isobutyl-2-isopropyl-3,6-dioxooctahydro-8H-oxazolo[3,2-a]pyrrolo[2,1-c]pyrazin-2-yl)carbamoyl)-7,7-dimethyl-4,6,6a,7,8,9-hexahydroindolo[4,3-fg]quinolin-7-ium iodide] | 88 | 38 ± 11 | 91 | 57.7 | 3.14 ± 0.34 | 1282.3 ± 130.7 | 651.9 ± 133.7 | 0.3 ± 0.03 | 0.51 ± 0.06 | 4260 ± 381 | 1280 ± 71.1 | 5.57 | 17.5 ± 4.9 | diminished D3R binding affinity compared to unmodified parent compound (human D3R [12]): 8.5 fold; diminished potency in D2R-mediated mitogenesis versus unmodified parent (human D2R [1]): 15.6 fold; diminished potency in D3R-mediated mitogenesis versus unmodified parent (human D3R [2]): 11.2 fold; plasma levels greater compared to bromocriptine ([8]; 10 mg/kg i.v., 60 min, listed as BrMeI): 8 fold and ~ 8 fold; diminished D2R binding affinity compared to unmodified parent compound (human D2R [9]): 5.3 fold |
